Data as given in US7671054B1, “Reverse-turn mimetics and method relating thereto” (Choongwae Pharma Corporation, priority 2001, dated 2010).

Assays:
[1] = test system: S.D. rats with Mycobacterium butyricum-induced polyarthritis; test: Rat adjuvant-induced arthritis model; assay type: in vivo
Description: To induce polyarthritis, six-week-old male S.D. rats received intradermal injection (base of tail) of 100 μl of Mycobacterium butyricum (Cat. No. 264010, Difco) in mineral oil (5 mg/ml) on Day 0. The test compound, Compound F, was given once daily at Day 1, 2, 3, 4, 5, 8, 10, 12 and 14 by oral gavage. […] The paw thickness was measured with digital caliper (Mitutoyo, Japan) and the arthritic index was accessed (FIG. 21).

[2] = test system: TNF-α in serum of ICR mice; test: Serum TNF-α induced by intraperitoneal LPS; assay type: in vivo, mouse; settings: perorally 60 min prior to LPS, blood 90 min after
Description: Male young ICR mice received intraperitoneal injection of LPS (E. coli O111:B4). Compound F was administered perorally 60 min prior to LPS challenge and blood was drawn 90 min subsequent to challenge. Vehicle control mice received the pharmacological carrier used for Compound F only. Concentration of TNF-α in the serum was determined by ELISA method. […] For reference, dexamethasone (Dex, Sigma) was treated (15 mg/kg, oral).

[3] = test system: NF-κB in stably transfected A549 cells; test: NF-κB reporter assay; assay type: cell-based; settings: PMA 10 ng/ml, 6 hr
Description: Cells were transferred into each well of 96 well white opaque plates (1×10^4 cells/well/50 μl) and incubated 24 hr at 37° C. in 5% CO2 incubator. The test compound, Compound F, was added to each well, and 1 hr later, phorbol 12-myristate 13-acetate (PMA) (10 ng/ml) was added into each well. Plates were incubated further for 6 hr at 37° C. in 5% CO2 incubator. One hundred microliter of Dual-glo FireFly substrate (Promega) was added and incubated for 10 min. Luminescence of each well was measured with a luminometer (Victor II) (FIG. 23).

[4] = test system: TNF-α production in THP-1 cells; test: LPS-induced TNF-α production in THP-1 cells; assay type: cell-based; settings: Homo sapiens, LPS 100 ng/ml, 6 hr
Description: LPS-induced TNF-α production in THP-1 cells: THP-1 cells were incubated with 200 nM PMA for 24 hr. Cells were harvested with trypsin and seeded into 96 well tissue culture plates (2×10^4 cells/well). The test compound, Compound F, was added to each well followed by LPS (100 ng/ml). The cells were further incubated for 6 hr at 37° C. in a CO2 incubator. Media was collected and concentration of TNF-α was determined with the ELISA kit (OptEIA, BD).

[5] = test system: IL-2 production in Jurkat cells; test: PMA/ionomycin-induced IL-2 production in Jurkat cells; assay type: cell-based; settings: Homo sapiens, 6 hr
Description: PMA/lonomycin-induced IL-2 production in Jurkat cells: Jurkat cells were seeded into 96 well tissue culture plates (1×10^5 cells/well) and treated with the test compound, Compound F, and further incubated for 60 min at 37° C. in a CO2 incubator. Stimulant (10 ng/ml PMA and 1 μg/ml ionomycin) was added into each well, and the cells were further incubated for 6 hr at 37° C. in a CO2 incubator. Supernatant was collected and concentration of IL-2 was determined with the ELISA kit (OptEIA, BD).

IC50 [4]: 7.08 µM
IC50 [5]: 8.48 µM
Compound: CC(C)C[C@H]1C(=O)N(CCC(c2ccccc2)c2ccccc2)C[C@H]2N1C(=O)CN(C)N2C(=O)NCc1ccccc1 [Compound F]
increase of paw thickness ([1]; oral 30 mg/kg): significantly ameliorated the increase of paw thickness
increase of paw thickness ([1]; oral 100 mg/kg): significantly ameliorated the increase of paw thickness
LPS-induced TNF-α in serum [2]: reduces LPS-induced TNF-α production in serum in a dose-dependent manner
NF-κB reporter activity [3]: effective in inhibiting NF-κB transcription
